# Patent publication US12060588B2, “Methods of editing DNA methylation” (Whitehead Institute for Biomedical Research, priority 2016, dated 2024)
# System: C3H10T1/2 mouse embryonic fibroblast cells
# Experiment: Fibroblast-to-myoblast conversion assay
# Assay type: cell-based
# Description: FIGS. 4A-4H depict targeted demethylation of the MyoD distal enhancer by dCas9-Tet1 to facilitate conversion of fibroblasts to myoblasts. FIG. 4A provides a schematic representation of targeting the MyoD distal enhancer (DE) region in DMR-5 by dCas9-Tet1 (dC-T) with specific gRNAs. […] Cherry positive cells were FACS sorted for RT-qPCR analysis. Bars represent mean±SD of three experimental replicates. FIG. 4C bisulfite sequencing of cells in FIG. 4B. […] Shown is the mean percentage±SD of two biological replicates. […] C3H10T1/2 cells were plated as 1×10^4 cells per well in 6-well plate, and then infected with lentiviruses expressing dC-T and gRNAs targeting DMR-5, or a catalytic dead form of Tet1 (dC-dT) with target gRNAs. 24-hour post infection, cells were treated with vehicle control (HEPES buffer) or 5-Azacytidine (1 uM) for 24-hour, and then harvested after 14 days for immunofluorescence staining. Stained in green for MyoD, magenta for MHC and blue for DAPI. Scale bar: 200 um. FIG. 4F provides quantification of MyoD positive cell ratio 14-day post infection with lentiviruses expressing dC-T alone, dC-T with gRNAs targeting DMR-5, and dC-dT with the target gRNAs. […] FIG. 4H provides quantification of myotube density in MHC positive clusters with more than 2 or 5 nuclei at 14-days after infection. […] Data are quantified from 3-5 representative images for F-H. Bars represent mean±SD.
# FIGS. 12A-12J depict targeted demethylation of the MyoD DMR-5 by dCas9-Tet1 and conversion of fibroblasts to myoblasts. […] PAM for each sgRNA is highlighted by a red box. FIG. 12B provides experimental scheme of the fibroblast-to-myoblast conversion assay. Briefly, C3H10T1/2 mouse embryonic fibroblast cells were plated as 1×10^4 cells per well in 6-well plate, and then infected with lentiviruses expressing dCas9-Tet1 and target gRNAs. 24-hour post infection, cells were optionally treated with 5-Azacytidine (1 uM) for 24-hour (labeled in red), and harvested for immunofluorescence staining at different time points (day-14, -16 and -25, labeled in dark blue) with medium change every other day. Scale bar: 100 um. […] Stained in green for MHC, red for MyoD and blue for DAPI. Scale bar: 200 um. FIG. 12D depicts a fraction of mock C3H10T1/2 cells expressing MyoD at different times after 5-Aza treatment. The fraction of cells expressing MyoD increases from around 6% at day 14 to around 13% at day 16 and reached around 20% at day 25. Bars represent mean±SD. FIG. 12E provides number of nuclei in MHC+ cell clusters (grouped as 1-2 and >2 nuclei per MHC+ cluster). […] Bars represent mean±SD. Data was quantified from 3-5 representative images for each group in FIG. 12D and FIG. 12E. […] Bars represent mean±SD of three experimental replicates. FIG. 12G provides representative images for C3H10T1/2 cells 16 days after infection with lentiviruses expressing dC-T and gRNAs targeting DMR-5 (MyoD distal enhancer) in a fibroblast-to-myoblast conversion assay as described in FIG. 12B. […] Stained in magenta for MHC, green for MyoD and blue for DAPI. Scale bar: 200 um. FIG. 12H depicts a fraction of MyoD positive cells 16 days after infection with lentiviruses expressing dC-T alone or with gRNAs targeting DMR-5. FIG. 12I show a number of nuclei in MHC+ cell clusters (grouped as 2-5, 6-10, 11-20 and >20 nuclei per MHC+ cluster) 16 days after infection. […] Data are quantified from 3-5 representative images for FIGS. 12H-12J. Bars represent mean±SD.
# We then investigated whether targeted demethylation of DMR-5 would synergize with 5-Aza treatment to induce myotube formation (FIG. 12B). To follow the process of myotube formation after 5-Aza treatment, a time-course experiment was performed. Multi-nucleated myotube (MHC-positive) with heterogeneous sizes began to form 14 days post treatment, and both MyoD-positive cell ratio and myotube density and size then increased up to day-25 (FIGS. 12C-12E). […]
substance,measurement,setting,value
"dCas9-Tet1: catalytically inactive Cas9 (dCas9) fused through NLS to the Tet1 catalytic domain, SEQ ID NO: 159; lentivirally expressed with gRNAs",MyoD expression level (immunofluorescence),"with gRNAs targeting DMR-5, 14 days, absence of 5-Aza",moderate expression level of MyoD
same,myotube formation,"with gRNAs targeting DMR-5, 14 days, absence of 5-Aza treatment",not sufficient to induce myotube formation
same,"myotube formation (MHC+ clusters, >2 nuclei per cluster)","with gRNAs targeting MyoD DMR-5 plus 5-Aza, 14 days post-treatment, versus dCas9-Tet1 only or dC-dT",facilitated the myotube formation
